Key:
Assay type in all cases: cell-based
[1] = test system: H1299 cells; assay: Clonogenic cell survival assay, H1299 cells; settings: for CI 5FU + 2Gy / CI TTFields + 5FU / CI TTFields + 5FU + 2Gy / CI Irino + 2Gy / CI TTFields + Irino / CI TTFields + Irino + 2Gy / CI TTFields + CP: CI>1 synergistic; for surviving fraction: agent as shown in figure
Method: (§1) Using certain embodiments disclosed herein, TTFields in combination with various inhibitors and/or radiation treatment (IR) were applied to NSCLC cells or pancreatic cancer cells. For example, a predetermined inhibitor at a predetermined concentration was delivered to NSCLC cells or pancreatic cancer cells, and the cells were immediately exposed to TTFields (e.g., 100-250 kHz and 1-20 V/cm v/cm) for about 24, […], or 72 hours. The predetermined concentration was a cell line specific concentration for optimal target cell killing. Then, the cells were irradiated (at a dose of 2Gy) for less than a minute (e.g., 3.25 Gy/min) and immediately plated for survival.
(§2) FIGS. 4 and 5 depict example effects of TTFields, AZD6738, radiation, and a combination thereof on non-small cell lung cancer cells (NSCLC) and pancreatic cancer cell, respectively. In particular, FIGS. 4 and 5 show TTFields exposure synergistically increases the effects of ATR inhibitor AZD6738 on NSLCL cells (FIG. 4) survival and pancreatic cancer cell (FIG. 5) survival. TTFields were used together with ATR inhibitor AZD6738 and radiation (IR). A synergistic effect was observed when AZD6738 and IR were combined with TTFields using the highest single agent (HSA) approach. The following formulas were used for calculating CI: SF=Survival Fraction; CI (TTFields)+(2Gy)=(SF2Gy×SFTTFields)/SF2Gy+TTFields; CI(TTFields)+(AZD)=(SFAZD×SFTTFields)/SFAZD+TTFields; CI (2Gy)+(AZD)=(SF2Gy×SFAZD)/SF2Gy+AZD; and CI (TTFields)+(2Gy)+(AZD)=(SF2Gy×SFAZD×SFTTFields)/SFTTFields+2Gy+AZD.
(§3) The following formulas are used for calculating the combination Index: SF=Survival Fraction; CI (TTFields)+(2Gy)=(SF2Gy×SFTTFields)/SF2Gy+TTFields; CI(TTFields)+(Irino)=(SFIrino×SFTTFields)/SFIrino+TTFields; CI (2Gy)+(Irino)=(S2Gy×SFIrino)SF2Gy+Irino; and CI (TTFields)+(2Gy)+(Irino)=(SF2Gy×SFIrino×SFTTFields)/SFTTFields+2Gy+Irino.

[2] = test system: H157 cells; assay: Clonogenic cell survival assay, H157 cells; settings: 48 h, CI>1 synergistic
[3] = test system: H1299 cells; assay: Clonogenic cell survival assay, H1299 cells; settings: 48 h, CI>1 synergistic
[4] = test system: Panc-1 cells; assay: Clonogenic cell survival assay, Panc-1 cells; settings: for surviving fraction: agent as shown in figure; for CI Irino + 2Gy / CI TTFields + Irino / CI TTFields + Irino + 2Gy: CI>1 synergistic
Method: (§4) Using certain embodiments disclosed herein, TTFields in combination with various inhibitors and/or radiation treatment (IR) were applied to NSCLC cells or pancreatic cancer cells. For example, a predetermined inhibitor at a predetermined concentration was delivered to NSCLC cells or pancreatic cancer cells, and the cells were immediately exposed to TTFields (e.g., 100-250 kHz and 1-20 V/cm v/cm) for about 24, […], or 72 hours. The predetermined concentration was a cell line specific concentration for optimal target cell killing.
(§5) Olaparib was given concomitant with TTFields. Radiation was given 24, 48 or 72 h after the initiation of TTFields and specific agents. […] Values greater than 1.0 are considered as synergistic, that is, greater than the sum of the individual responses. The following formulas were used for calculating CI: SF=Survival Fraction; CI (TTFields)+(2Gy)=(SF2Gy×SFTTFields)/SF2Gy+TTFields; CI(TTFields)+(Olap)=(SFOlap×SFTTFields)/SFOlap+TTFields; CI (2Gy)+(Olap)=(SF2Gy×SFOlap)/SF2Gy+Olap; and CI (TTFields)+(2Gy)+(Olap)=(SF2Gy×SFOlap×SFTTFields)/SFTTFields+2Gy+Olap. […] Based upon the Highest Single Agent […] approach. The calculation for the Combination Index can be found below.
as §2, §3

[5] = test system: 04.03 cells; assay: Clonogenic cell survival assay, 04.03 cells
Method: as §4, §5, §2

[6] = test system: H157 cells; assay: Clonogenic cell survival assay, H157 cells; settings: for CI 5FU + 2Gy / CI TTFields + 5FU / CI TTFields + 5FU + 2Gy / CI Irino + 2Gy / CI TTFields + Irino / CI TTFields + Irino + 2Gy / CI TTFields + CP: CI>1 synergistic; for surviving fraction: agent as shown in figure
Method: as §1, §2, §3

[7] = test system: NSCLC; assay: Cell survival of NSCLC cells with CP/ETP with/without TTFields (FIG. 6); settings: HSA approach
Method: as §1
FIG. 6 depicts example effects of TTFields, Cisplatin, Etoposide, and a combination thereof on NSCLC. […] CP and ETP were tested alone or in combination and with/without TTFields.

In the case of `O=c1[nH]cc(F)c(=O)[nH]1` [5FU, 5-Fluorouracil], the “effect of combinations of TTFields, agent and/or IR on cell survival” value (from here on “effect of combinations of TTFields”) [1] is reported as “synergistic effects”, the “CI 5FU + 2Gy” value ([1]; 24 h) is reported as 1.254 and the “CI TTFields + 5FU” value ([1]; 24 h) is reported as 1.352. For the same compound, the “CI TTFields + 5FU + 2Gy” value ([1]; 24 h) was 1.762, the “CI 5FU + 2Gy” value ([1]; 48 h) was 0.950 and the “CI TTFields + 5FU” value ([1]; 48 h) was 1.348. For the same compound, the “CI TTFields + 5FU” value ([1]; 72 h) was 1.326, the “CI TTFields + 5FU + 2Gy” value ([1]; 72 h) was 1.345 and the surviving fraction [1] was “significantly reduced”. The “CI TTFields + 5FU” value [2] was 1.252, the “CI TTFields + 5FU + 2Gy” value [3] was 1.263 and the “effect of combinations of TTFields” value [4] was “synergistic effects”. For the same compound, the surviving fraction [4] was “significantly reduced”, the “effect of combinations of TTFields” value [5] was “synergistic effects” and the surviving fraction ([5]; agent as shown in figure) was “significantly reduced”. For the same compound, the “effect of combinations of TTFields” value [6] was “synergistic effects”, the “CI 5FU + 2Gy” value ([6]; 24 h) was 0.894 and the “CI TTFields + 5FU” value ([6]; 24 h) was 1.559. The “CI TTFields + 5FU + 2Gy” value ([6]; 24 h) was 1.433, the “CI 5FU + 2Gy” value ([6]; 48 h) was 0.962 and the “CI TTFields + 5FU + 2Gy” value ([6]; 48 h) was 1.783. For the same compound, the “CI 5FU + 2Gy” value ([6]; 72 h) was 1.125, the “CI TTFields + 5FU” value ([6]; 72 h) was 1.106 and the “CI TTFields + 5FU + 2Gy” value ([6]; 72 h) was 1.658. For the same compound, the surviving fraction [6] was “significantly reduced”.
In the case of `CCc1c2c(nc3ccc(OC(=O)N4CCC(N5CCCCC5)CC4)cc13)-c1cc3c(c(=O)n1C2)COC(=O)[C@]3(O)CC` [Irino, Irinotecan], the “effect of combinations of TTFields” value [1] is reported as “synergistic effects”, the “CI Irino + 2Gy” value ([1]; 24 h) is reported as 1.244 and the “CI TTFields + Irino” value ([1]; 24 h) is reported as 1.388. The “CI TTFields + Irino + 2Gy” value ([1]; 24 h) was 2.365, the “CI Irino + 2Gy” value ([1]; 48 h) was 1.012 and the “CI TTFields + Irino + 2Gy” value ([1]; 48 h) was 2.130. The “CI Irino + 2Gy” value ([1]; 72 h) was 1.027, the “CI TTFields + Irino” value ([1]; 72 h) was 2.081 and the “CI TTFields + Irino + 2Gy” value ([1]; 72 h) was 2.051. For the same compound, the surviving fraction [1] was “significantly reduced”, the “CI TTFields + Irino” value [3] was 1.821 and the “effect of combinations of TTFields” value [4] was “synergistic effects”. For the same compound, the “CI Irino + 2Gy” value ([4]; 24 h) was 1.022, the “CI TTFields + Irino” value ([4]; 24 h) was 1.082 and the “CI TTFields + Irino + 2Gy” value ([4]; 24 h) was 2.360. For the same compound, the “CI Irino + 2Gy” value ([4]; 48 h) was 1.009, the “CI TTFields + Irino” value ([4]; 48 h) was 0.974 and the “CI TTFields + Irino + 2Gy” value ([4]; 48 h) was 2.335. The “CI Irino + 2Gy” value ([4]; 72 h) was 1.132, the “CI TTFields + Irino” value ([4]; 72 h) was 1.030 and the “CI TTFields + Irino + 2Gy” value ([4]; 72 h) was 4.454. The surviving fraction [4] was “significantly reduced”, the “effect of combinations of TTFields” value [6] was “synergistic effects” and the “CI Irino + 2Gy” value ([6]; 24 h) was 1.064. The “CI TTFields + Irino” value ([6]; 24 h) was 1.483, the “CI TTFields + Irino + 2Gy” value ([6]; 24 h) was 1.763 and the “CI Irino + 2Gy” value ([6]; 48 h) was 1.244. The “CI TTFields + Irino” value ([6]; 48 h) was 1.174, the “CI TTFields + Irino + 2Gy” value ([6]; 48 h) was 1.463 and the “CI Irino + 2Gy” value ([6]; 72 h) was 1.275. For the same compound, the “CI TTFields + Irino” value ([6]; 72 h) was 1.136, the “CI TTFields + Irino + 2Gy” value ([6]; 72 h) was 2.501 and the surviving fraction [6] was “significantly reduced”.
For `N.N.[Cl][Pt][Cl]` [CP, Cisplatin], the “cell killing capacity in combination with TTFields” value [7] was “synergistically enhanced”, the “CI TTFields + CP” value ([1]; 24 h) was 1.140 and the “CI TTFields + CP” value ([1]; 48 h) was 1.021. For the same compound, the “CI TTFields + CP” value ([1]; 72 h) was 1.225, the “CI TTFields + CP” value ([6]; 24 h) was 0.887 and the “CI TTFields + CP” value ([6]; 48 h) was 0.869. The “CI TTFields + CP” value ([6]; 72 h) was 1.079.

Reference: patent publication US20220288404A1, “METHODS FOR APPLYING TUMOR TREATING FIELDS IN COMBINATION WITH CANCER TREATING THERAPEUTICS” (THE BOARD OF REGENTS OF THE UNIVERSITY OF TEXAS SYSTEM, priority 2021, published 2022)
